Results as given in the supplement of paper PMC10307832.

What was measured:
Assay in all cases: relative viability (nuclei count vs DMSO), 5 days (fraction); higher = more cells survive
VE-821 + Dasatinib = compound: CS(=O)(=O)c1ccc(-c2cnc(N)c(C(=O)Nc3ccccc3)n2)cc1 [VE-821] + Cc1nc(Nc2ncc(C(=O)Nc3c(C)cccc3Cl)s2)cc(N2CCN(CCO)CC2)n1 [Dasatinib] (partner 0.075 µM)
In short: (§1)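 Relative viability equals treated-well nuclei counts divided by vehicle-well nuclei counts. Counts came from 4× images of lung cancer cell lines grown in 1536-well plates for 5 days after pin-tool dosing on the day after seeding. Dosing used one drug alone or a fixed anchor-drug dose plus five library-drug doses (not always all listed) in √10 steps, and values are medians of duplicate plates.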

Ruxolitinib + Luminespib = compound: N#CC[C@H](C1CCCC1)n1cc(-c2ncnc3[nH]ccc23)cn1 [Ruxolitinib] + CCNC(=O)c1noc(-c2cc(C(C)C)c(O)cc2O)c1-c1ccc(CN2CCOCC2)cc1 [Luminespib] (partner 0.01 µM)
In short: as §1

Ruxolitinib + Lapatinib = compound: N#CC[C@H](C1CCCC1)n1cc(-c2ncnc3[nH]ccc23)cn1 [Ruxolitinib] + CS(=O)(=O)CCNCc1ccc(-c2ccc3ncnc(Nc4ccc(OCc5cccc(F)c5)c(Cl)c4)c3c2)o1 [Lapatinib] (partner 2 µM)
In short: as §1

Vismodegib + Pictilisib = compound: CS(=O)(=O)c1ccc(C(=O)Nc2ccc(Cl)c(-c3ccccn3)c2)c(Cl)c1 [Vismodegib] + CS(=O)(=O)N1CCN(Cc2cc3nc(-c4cccc5[nH]ncc45)nc(N4CCOCC4)c3s2)CC1 [Pictilisib] (partner 1 µM)
In short: as §1

Cell Line | relative viability (VE-821 + Dasatinib; first compound 0.08 µM) | relative viability (VE-821 + Dasatinib; first compound 0.253 µM) | relative viability (VE-821 + Dasatinib; first compound 0.8 µM) | relative viability (VE-821 + Dasatinib; first compound 2.53 µM) | relative viability (VE-821 + Dasatinib; first compound 8 µM) | relative viability (Ruxolitinib + Luminespib; first compound 0.08 µM) | relative viability (Ruxolitinib + Luminespib; first compound 0.253 µM) | relative viability (Ruxolitinib + Luminespib; first compound 0.8 µM) | relative viability (Ruxolitinib + Luminespib; first compound 2.53 µM) | relative viability (Ruxolitinib + Luminespib; first compound 8 µM) | relative viability (Ruxolitinib + Lapatinib; first compound 0.08 µM) | relative viability (Ruxolitinib + Lapatinib; first compound 0.253 µM) | relative viability (Ruxolitinib + Lapatinib; first compound 0.8 µM) | relative viability (Ruxolitinib + Lapatinib; first compound 2.53 µM) | relative viability (Ruxolitinib + Lapatinib; first compound 8 µM) | relative viability (Vismodegib + Pictilisib; first compound 0.08 µM) | relative viability (Vismodegib + Pictilisib; first compound 0.253 µM) | relative viability (Vismodegib + Pictilisib; first compound 0.8 µM) | relative viability (Vismodegib + Pictilisib; first compound 2.53 µM) | relative viability (Vismodegib + Pictilisib; first compound 8 µM)
SW 900 | 0.7 | 0.545 | 0.397 | 0.658 | 0.37 | 0.175 | 0.181 | 0.181 | 0.154 | 0.193 | – | – | – | – | – | – | – | – | – | –
NCI-H358 | 0.157 | 0.156 | 0.183 | 0.209 | 0.213 | 0.309 | 0.238 | 0.312 | 0.362 | 0.168 | 0.421 | 0.434 | 0.445 | 0.36 | 0.35 | 0.301 | 0.326 | 0.294 | 0.37 | 0.34
ChaGo-K-1 | 0.553 | 0.525 | 0.582 | 0.62 | 0.418 | 0.635 | 0.655 | 0.605 | 0.492 | 0.517 | – | – | – | – | – | 0.784 | 0.851 | 0.623 | 0.666 | 0.709
NCI-H1755 | 0.455 | 0.452 | 0.372 | 0.413 | 0.318 | 0.452 | 0.45 | 0.699 | 0.351 | 0.362 | 1.05 | 1.02 | 1.04 | 0.977 | 0.722 | 0.43 | 0.406 | 0.471 | 0.448 | 0.449
LCLC-103H | 0.418 | 0.525 | 0.31 | 0.474 | 0.513 | 0.851 | 0.862 | 0.959 | 1.04 | 0.956 | – | – | – | – | – | 0.606 | 0.533 | 0.574 | 0.633 | 0.646
HCC-827 | 0.322 | 0.294 | 0.289 | 0.421 | 0.262 | – | 0.578 | 0.679 | 0.519 | 0.562 | – | 0.196 | 0.172 | 0.212 | 0.225 | 1.22 | 1.06 | 0.834 | 0.854 | 0.97
HCC-44 | – | – | – | – | – | 1.02 | 1.07 | 1.2 | 0.689 | 0.527 | 1.06 | 1.07 | 1.04 | 1.01 | 0.783 | 0.611 | 0.657 | 0.546 | 0.474 | 0.668
NCI-H727 | 0.457 | 0.334 | 0.374 | 0.32 | 0.317 | 0.3 | 0.357 | 0.655 | 0.35 | 0.2 | 0.904 | 1.03 | 1.09 | 0.777 | 0.821 | 0.525 | 0.395 | 0.277 | 0.257 | 0.402
NCI-H1563 | 0.449 | 0.483 | 0.405 | 0.456 | 0.453 | 0.535 | 0.515 | 0.549 | 0.505 | 0.505 | 1.07 | 0.85 | 0.979 | 0.903 | 0.774 | 0.649 | 0.591 | 0.647 | 0.643 | 0.72
A549 | – | – | – | – | – | – | – | – | – | – | 0.998 | 1.03 | 1.04 | 0.918 | 0.636 | 0.507 | 0.465 | 0.478 | 0.56 | 0.432
NCI-H2342 | 0.331 | 0.329 | 0.311 | 0.324 | 0.293 | 0.748 | 0.79 | 0.863 | 0.788 | 0.728 | – | – | – | – | – | – | – | – | – | –
NCI-H1623 | 0.565 | 0.53 | 0.518 | 0.525 | 0.606 | 0.423 | 0.431 | 0.705 | 0.526 | 0.765 | – | – | – | – | – | – | – | – | – | –
EBC-1 | – | – | – | – | – | – | – | – | – | – | 0.21 | – | 0.216 | 0.232 | 0.195 | 0.38 | 0.433 | 0.386 | 0.426 | 0.433
HCC-78 | 0.453 | 0.281 | 0.376 | 0.432 | 0.33 | – | – | – | – | – | 0.37 | 0.294 | 0.441 | 0.553 | 0.199 | 0.19 | 0.189 | 0.176 | 0.206 | 0.234
HCC-366 | 0.67 | 0.633 | 0.516 | 0.255 | 0.0491 | – | – | – | – | – | 1.11 | 0.982 | 1.1 | 0.937 | 0.747 | 0.16 | 0.17 | 0.148 | 0.137 | 0.131
NCI-H522 | 0.77 | 0.918 | 0.704 | 0.902 | 0.825 | 1.14 | 1.81 | 1.25 | 0.884 | 1.64 | – | – | – | – | – | – | – | – | – | –
Calu-6 | – | – | – | – | – | – | – | – | – | – | 1.09 | 1.09 | 1.17 | 1 | 0.647 | 0.934 | 0.915 | 0.886 | 0.918 | 0.859
IA-LM | – | – | – | – | – | – | – | – | – | – | 0.903 | 0.657 | 1.04 | 1.01 | 0.477 | 0.363 | 0.354 | 0.277 | 0.281 | 0.379
NCI-H441 | 0.641 | 0.558 | 0.706 | 0.687 | 0.539 | 0.299 | 0.424 | 0.319 | 0.472 | 0.317 | – | – | – | – | – | 0.505 | 0.444 | 0.536 | 0.391 | 0.502
NCI-H1703 | – | – | – | – | – | – | – | – | – | – | 0.999 | 1.01 | 1.12 | 0.738 | 0.64 | 0.223 | 0.216 | 0.302 | 0.254 | 0.249
NCI-H1299 | – | – | – | – | – | – | – | – | – | – | 0.937 | 0.963 | 0.957 | 0.915 | 0.718 | 0.761 | 0.815 | 0.72 | 0.787 | 0.96
